# Test results: patent US20040127492A1 (Pharmacia Corporation, priority 2002, published 2004)
# Like-named read-outs stand apart in the source and are kept apart here.
# What was measured:
# [1] = biological target: MK-3 (Homo sapiens, UniProt Q16644); test: MK-3 inhibition IC50 (similar method to MK-2, with appropriate modifications); assay type: biochemical; settings: read-out: MK-3 Avg. IC50
# Procedure: In practice, the selectivity of a cyclic pyrazole MK-2 inhibitor varies depending upon the condition under which the test is performed and on the inhibitors being tested. However, for the purposes of this specification, the selectivity of a cyclic pyrazole MK-2 inhibitor inhibitor can be measured as a ratio of the in vitro or in vivo IC50 value for inhibition of MK-3, divided by the IC50 value for inhibition of MK-2 (IC50 MK-3/IC50 MK-2). […] The MK-2 or MK-3 inhibiting activity of any of the compounds described herein can be determined by any one of several methods that are well known to those having skill in the art of enzyme activity testing. […] A similar method, with appropriate modifications, Can be used to measure MK-3 inhibitory activity. In addition, the efficacy of one of the present MK-2 inhibiting compounds in therapeutic applications can be determined by testing for inhibition of TNFα production in cell culture and in animal model assays.
# [2] = biological target: MAPKAPK2 (MK-2) (Homo sapiens, UniProt P49137); test: Determination of MK-2 IC50 (HSP-peptide phosphorylation, anion exchange resin capture assay); assay type: biochemical
# Summary of the method: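 MAPKAPK2, preactivated by p38α with 0.25 mM ATP for 1 h at 30° C, used at 15 nM to phosphorylate HSP-peptide with 0.03 mM ATP plus [γ33P]ATP, pH 7.5, 2% DMSO, 30 min at 30° C. Labelled peptide counted after anion-exchange resin capture; IC50 from six ten-fold dilutions, triplicate.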
# [3] = Table 2, pyrazolylpyrazole MK-2 inhibitors
# [4] = Table 2, pyrazolylpyrazole MK-2 inhibitors, read-out: MK-2 Avg. IC50
# [5] = Table 1, phenoxypyrazole MK-2 inhibitors
# [6] = Table 1, phenoxypyrazole MK-2 inhibitors, read-out: MK-2 Avg, IC50
# [7] = Table 5, other cyclic pyrazole MK-2 inhibiting compounds
# [8] = Table 5, other cyclic pyrazole MK-2 inhibiting compounds, read-out: MK-2 Avg. IC50
# MK-3, sequence (Q16644 whole entry, species assumed): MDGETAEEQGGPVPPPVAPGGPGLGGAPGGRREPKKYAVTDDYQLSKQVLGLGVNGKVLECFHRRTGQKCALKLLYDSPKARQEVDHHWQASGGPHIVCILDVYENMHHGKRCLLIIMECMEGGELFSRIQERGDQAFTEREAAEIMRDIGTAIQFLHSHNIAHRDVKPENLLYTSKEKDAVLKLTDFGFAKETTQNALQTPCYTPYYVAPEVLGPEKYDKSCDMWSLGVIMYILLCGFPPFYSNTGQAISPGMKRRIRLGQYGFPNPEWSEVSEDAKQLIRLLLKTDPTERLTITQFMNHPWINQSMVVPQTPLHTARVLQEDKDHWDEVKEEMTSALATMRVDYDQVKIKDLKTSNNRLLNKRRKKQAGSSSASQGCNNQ
# MAPKAPK2 (MK-2), sequence (P49137 whole entry, species assumed): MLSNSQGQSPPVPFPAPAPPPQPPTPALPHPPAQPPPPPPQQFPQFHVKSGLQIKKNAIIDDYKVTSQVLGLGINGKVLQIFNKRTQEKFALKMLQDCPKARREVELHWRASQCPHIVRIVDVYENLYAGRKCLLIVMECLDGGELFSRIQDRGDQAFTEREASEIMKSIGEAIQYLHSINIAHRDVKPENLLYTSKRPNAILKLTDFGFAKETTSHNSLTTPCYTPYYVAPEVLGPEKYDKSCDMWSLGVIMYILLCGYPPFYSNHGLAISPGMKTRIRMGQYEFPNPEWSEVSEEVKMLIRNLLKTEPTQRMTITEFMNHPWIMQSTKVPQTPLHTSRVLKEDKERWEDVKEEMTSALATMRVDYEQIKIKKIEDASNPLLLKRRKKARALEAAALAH
IC50 [1] [µM],IC50 ([2]; read-out: MK-2 Avg. IC50) [µM],"IC50 [1, 3] [µM]","IC50 [2, 4] [µM]",Compound,also measured
0.875,0.0558,–,–,COc1cccc(-c2cc3c(cn2)CCc2c-3nn(CCCN)c2C(=O)O)c1 [Example 14],–
–,–,137,20,O=C1NCCn2nc3c(c21)CCc1[nH]ncc1-3 [Example 14],–
–,–,134,22.7,C=CCn1nc2c(c1C(=O)O)CCc1[nH]ncc1-2 [Example 15],–
–,–,–,–,NCCCn1nc2c(c1C(=O)O)CCc1cc(O)c(-c3ccc(Cl)cc3)cc1-2 [Example 15],"IC50 [1, 5]: 109 µM; IC50 [2, 6]: 11 µM"
0.209,0.0567,–,–,NCCCn1nc2c(c1C(=O)O)CCc1cnc(-c3ccc(C(F)(F)F)cc3)cc1-2 [Example 15],–
–,–,–,–,CS(=O)(=O)c1cccc(-c2cc3c(cc2O)CCc2c-3nn(CCCN)c2C(=O)O)c1 [Example 16],"IC50 [1, 5]: > 200 µM; IC50 [2, 6]: 12.9 µM"
1.15,0.074,–,–,NCCCn1nc2c(c1C(=O)O)CCc1cnc(Nc3ccccc3)cc1-2 [Example 16],–
–,–,56,23.8,O=C1NCCCn2nc3c(c21)CCc1[nH]nc(SCc2ccccc2)c1-3 [Example 16],–
–,–,129,28.4,NC(=O)c1[nH]nc2c1CCc1[nH]ncc1-2 [Example 17],–
–,–,–,–,NCCCn1nc2c(c1C(=O)O)CCc1cc(O)c(-c3ccc(F)c(F)c3)cc1-2 [Example 17],"IC50 [1, 5]: 167 µM; IC50 [2, 6]: 14.2 µM"
1.73,0.0786,–,–,NCCCn1nc2c(c1C(=O)O)CCc1cnc(-c3ccc(F)c(F)c3)cc1-2 [Example 17],–
2.18,0.0796,–,–,O=C(O)c1ccc(-c2ccc(CCNCCCn3nc4c(c3C(=O)O)CCc3cnccc3-4)cc2)cc1 [Example 18],–
–,–,–,–,NCCCn1nc2c(c1C(=O)O)CCc1cc(O)c(-c3cccc(N)c3)cc1-2 [Example 19],"IC50 [1, 5]: 166 µM; IC50 [2, 6]: 17.2 µM"
–,–,≥ 200,46.5,O=C(O)c1nn(C2CCN(C(=O)OCc3ccccc3)CC2)c2c1CCc1c-2cnn1C(c1ccccc1)(c1ccccc1)c1ccccc1 [Example 19],–
0.861,0.0867,–,–,O=C1NCCn2nc3c(c21)CCc1cnc(-c2ccc(O)cc2)cc1-3 [Example 19],–
–,–,≥ 200,55.3,CCOC(=O)c1c2c(nn1CCCN)-c1c(SC)n[nH]c1CC2 [Example 20],–
–,–,–,–,NC(=O)c1[nH]nc2c1CCc1c-2ccc(O)c1Br [Example 20],"IC50 [1, 5]: > 200 µM; IC50 [2, 6]: 17.6 µM"
–,–,–,–,CNc1ccc(-c2cc3c(cc2O)CCc2c-3nn(CCCN)c2C(=O)O)cc1 [Example 21],"IC50 [1, 5]: > 200 µM; IC50 [2, 6]: 17.7 µM"
–,–,≥ 200,60.4,O=C(O)c1c2c(nn1C1CCNCC1)-c1cn[nH]c1CC2 [Example 21],–
10.4,0.103,–,–,O=C(O)c1c2c(nn1CCCNCCc1ccc(-c3cccc(C(F)(F)F)c3)cc1)-c1ccncc1CC2 [Example 21],–
–,–,–,–,CC(C)(C)c1ccc(-c2cc3c(cc2O)CCc2c-3nn(CCCN)c2C(=O)O)cc1 [Example 22],"IC50 [1, 5]: 120 µM; IC50 [2, 6]: 18.8 µM"

IC50 [1] [µM],IC50 ([2]; read-out: MK-2 Avg. IC50) [µM],"IC50 [1, 3] [µM]","IC50 [2, 4] [µM]",Compound,also measured
0.426,0.112,–,–,CC(C)(C)c1ccc(-c2cc3c(cn2)CCc2c-3nn(CCCN)c2C(=O)O)cc1 [Example 22],–
–,–,195,68.3,O=C(O)c1nn(CC(F)(F)F)c2c1CCc1c-2cnn1C(c1ccccc1)(c1ccccc1)c1ccccc1 [Example 22],–
–,–,≥ 200,72.2,NC(=O)c1nn(CCO)c2c1CCc1[nH]ncc1-2 [Example 23],–
–,–,–,–,NCCCn1nc2c(c1C(=O)O)CCc1cc(O)c(-c3ccncc3)cc1-2 [Example 23],"IC50 [1, 5]: > 200 µM; IC50 [2, 6]: 18.8 µM"
2.62,0.126,–,–,O=C(O)c1c2c(nn1CCCNCCc1ccc(-c3ccoc3)cc1)-c1ccncc1CC2 [Example 23],–
–,–,≥ 200,78.4,NC(=O)c1ccc(-n2nc(C(N)=O)c3c2-c2cn[nH]c2CC3)cc1 [Example 24],–
–,–,–,–,O=C(O)c1[nH]nc2c1CCc1cc(O)ccc1-2 [Example 24],"IC50 [1, 5]: > 200 µM; IC50 [2, 6]: 19.6 µM"
5.85,0.13,–,–,O=C(O)c1c2c(nn1CCCNCCc1ccc(-c3cccc(Cl)c3)cc1)-c1ccncc1CC2 [Example 24],–
6.52,0.142,–,–,COc1ccc(-c2cc3c(cn2)CCc2c-3nn3c2C(=O)NCCC3)cc1 [Example 25],–
–,–,49.3,95.1,C=CCn1nc(C(N)=O)c2c1-c1cn[nH]c1CC2 [Example 26],–
–,–,–,–,CC(C)(CCc1cc2c(cc1O)CCc1c-2nn(CCCN)c1C(=O)O)CC(=O)O [Example 26],"IC50 [1, 5]: 135 µM; IC50 [2, 6]: 22.2 µM"
9.04,0.147,–,–,O=C(O)c1c2c(nn1CCCNCCc1ccc(-c3ccc(C(F)(F)F)cc3)cc1)-c1ccncc1CC2 [Example 26],–
–,–,–,–,NCCCn1nc2c(c1C(=O)O)CCc1cc(O)c(N)cc1-2 [Example 27],"IC50 [1, 5]: > 200 µM; IC50 [2, 6]: 26.8 µM"
–,–,≥ 200,103,O=C(O)c1c2c(nn1CCCO)-c1cn[nH]c1CC2 [Example 27],–
2.51,0.148,–,–,O=C1NCCn2nc3c(c21)CCc1cnc(-c2cccc(O)c2)cc1-3 [Example 27],–
4.67,0.162,–,–,NCCCn1nc2c(c1C(=O)NO)CCc1cnc(-c3cnc4ccccc4c3)cc1-2 [Example 28],–
–,–,–,–,O=C(O)c1[nH]nc2c1CCc1cc(O)c(O)cc1-2 [Example 28],"IC50 [1, 5]: > 200 µM; IC50 [2, 6]: 28.3 µM"
–,–,≥ 200,112,NC(=O)c1nn(-c2ccccc2)c2c1CCc1[nH]ncc1-2 [Example 29],–
27.5,0.164,–,–,O=C1NCCn2nc3c(c21)CCc1cnc(/C=C/c2ccc(O)cc2)cc1-3 [Example 29],–
–,–,–,–,NCCCn1nc2c(c1C(=O)O)CCc1cc(O)c(-c3ccccc3Cl)cc1-2 [Example 30],"IC50 [1, 5]: 60.7 µM; IC50 [2, 6]: 29.8 µM"
–,–,≥ 200,114,O=C(O)c1[nH]nc2c1CCc1c-2cnn1CCO [Example 30],–

IC50 [1] [µM],IC50 ([2]; read-out: MK-2 Avg. IC50) [µM],"IC50 [1, 3] [µM]","IC50 [2, 4] [µM]",Compound,also measured
11.9,0.171,–,–,O=C1NCCCn2nc3c(c21)CCc1cnc(-c2cnc4ccccc4c2)cc1-3 [Example 30],–
–,–,≥ 200,114,C=CCSc1n[nH]c2c1-c1nn(CCCN)c(C(=O)OCC)c1CC2 [Example 31],–
–,–,–,–,C=CCn1nc2c(c1C(=O)O)CCc1cc(O)ccc1-2 [Example 31],"IC50 [1, 5]: > 200 µM; IC50 [2, 6]: 35.6 µM"
2.56,0.183,–,–,O=C1NCCCn2nc3c(c21)CCc1cnc(-c2ccc(O)cc2)cc1-3 [Example 31],–
–,–,–,–,COc1cc2c(cc1-c1ccc([N+](=O)[O-])cc1)-c1nn(CCCNC(=O)OC(C)(C)C)c(C(=O)O)c1CC2 [Example 32],"IC50 [1, 5]: 115 µM; IC50 [2, 6]: 37.4 µM"
–,–,≥ 200,116,N#CCCCn1nc2c(c1C(=O)O)CCc1[nH]ncc1-2 [Example 32],–
9.61,0.185,–,–,O=C(O)c1c2c(nn1CCCNCCc1ccc(-c3ccccc3Cl)cc1)-c1ccncc1CC2 [Example 32],–
7.22,0.201,–,–,CC(C)(C)c1ccc(-c2ccc(CCNCCCn3nc4c(c3C(=O)O)CCc3cnccc3-4)cc2)cc1 [Example 33],–
–,–,186,116,CCOC(=O)c1c2c(nn1CCCN)-c1cn[nH]c1CC2 [Example 33],–
–,–,–,–,NC(=O)c1[nH]nc2c1CCc1cc(O)ccc1-2 [Example 33],"IC50 [1, 5]: 107 µM; IC50 [2, 6]: 39.2 µM"
–,–,–,–,NCCCn1nc2c(c1C(=O)O)CCc1cnc(/C=C/c3ccccc3)cc1-2 [Example 33],"IC50 [1, 7]: 0.528 µM; IC50 [2, 8]: 0.0329 µM"
–,–,–,–,Cn1nc2c(c1C(=O)O)CCc1cc(O)ccc1-2 [Example 34],"IC50 [1, 5]: > 200 µM; IC50 [2, 6]: 44.4 µM"
–,–,≥ 200,120,NC(=O)c1nn(Cc2ccccc2)c2c1CCc1[nH]ncc1-2 [Example 34],–
–,–,–,–,O=C(O)c1c2c(nn1CCCNCCc1ccc(Br)cc1)-c1cc(/C=C/c3ccccc3)ncc1CC2 [Example 34],"IC50 [1, 7]: 2.02 µM; IC50 [2, 8]: 0.28 µM"
10.3,0.201,–,–,O=C(O)c1c2c(nn1CCCNCCc1ccc(Cl)c(Cl)c1)-c1ccncc1CC2 [Example 34],–
–,–,≥ 200,124,CS(=O)(=O)c1ccc(-n2nc(C(N)=O)c3c2-c2cn[nH]c2CC3)cc1 [Example 35],–
8.57,0.207,–,–,O=C(O)c1c2c(nn1CCCNCCCc1cccc(Cl)c1)-c1ccncc1CC2 [Example 35],–
–,–,–,–,O=C(O)c1c2c(nn1CCCNCCc1ccc(/C=C/c3ccccc3)cc1)-c1cc(/C=C/c3ccccc3)ncc1CC2 [Example 35],"IC50 [1, 7]: > 20 µM; IC50 [2, 8]: 0.528 µM"
–,–,≥ 200,133,CCOC(=O)c1c2c(nn1CCCNCCc1ccsc1)-c1cn[nH]c1CC2 [Example 36],–
–,–,–,–,NCCCn1nc2c(c1C(=O)O)CCc1cc(O)c(-c3cccc(C(=O)O)c3)cc1-2 [Example 36],"IC50 [1, 5]: > 200 µM; IC50 [2, 6]: 47.3 µM"
11.5,0.21,–,–,O=C1NCCn2nc3c(c21)CCc1cnc(/C=C/c2ccccc2)cc1-3 [Example 36],–
